Test results as given in ChEMBL document CHEMBL3046890, “Synthesis and Herbicidal Activity of Sulfonylureas; SL-950 and Its Related Compounds” (1995).

Assays:
Type in all cases: functional
Conditions in all cases: read-out: GI
Triticum aestivum = assay: Post emergence phyototoxic activity against Triticum aestivum (wheat) plants assessed as inhibition of plant growth at 125 g ai/ha measured 22 to 37 days after compound application under greenhouse conditions
Zea mays = assay: Post emergence phyototoxic activity against Zea mays (maize) plants assessed as inhibition of plant growth at 125 g ai/ha measured 22 to 37 days after compound application under greenhouse conditions
Persicaria longiseta = assay: Post-emergence herbicidal activity against Persicaria longiseta assessed as inhibition of weed growth at 125 g ai/ha measured 22 to 37 days after compound application under greenhouse conditions
Echinochloa crus-galli = assay: Post emergence herbicidal activity against Echinochloa crus-galli (barnyard grass) assessed as inhibition of weed growth at 125 g ai/ha measured 22 to 37 days after compound application under greenhouse conditions
Amaranthus viridis = assay: Post-emergence herbicidal activity against Amaranthus viridis assessed as inhibition of weed growth at 125 g ai/ha measured 22 to 37 days after compound application under greenhouse conditions
Sida spinosa = assay: Post-emergence herbicidal activity against Sida spinosa assessed as inhibition of weed growth at 125 g ai/ha measured 22 to 37 days after compound application under greenhouse conditions
Ipomoea purpurea = assay: Post emergence herbicidal activity against Ipomoea purpurea (common morning-glory) assessed as inhibition of weed growth at 125 g ai/ha measured 22 to 37 days after compound application under greenhouse conditions
Xanthium strumarium = assay: Post emergence herbicidal activity against Xanthium strumarium (cocklebur) assessed as inhibition of weed growth at 125 g ai/ha measured 22 to 37 days after compound application under greenhouse conditions

COc1nc(NC(=O)NS(=O)(=O)c2ncccc2C(=O)N(C)C)nc(OC)n1
inhibition of growth at 125 g/ha (Triticum aestivum): 0% | inhibition of growth at 125 g/ha (Zea mays): 0% | inhibition of growth at 125 g/ha (Persicaria longiseta): 0% | inhibition of growth at 125 g/ha (Echinochloa crus-galli): 0% | inhibition of growth at 125 g/ha (Amaranthus viridis): 0% | inhibition of growth at 125 g/ha (Sida spinosa): 0% | inhibition of growth at 125 g/ha (Ipomoea purpurea): 0%

CCC(=O)N(CC)C(=O)c1cccnc1S(=O)(=O)NC(=O)Nc1nc(OC)cc(OC)n1
inhibition of growth at 125 g/ha (Zea mays): 0% | inhibition of growth at 125 g/ha (Amaranthus viridis): 100%

CN(C)C(=O)c1cccnc1S(=O)(=O)NC(=O)Nc1nc(OC(F)F)cc(OC(F)F)n1
inhibition of growth at 125 g/ha (Triticum aestivum): 0% | inhibition of growth at 125 g/ha (Persicaria longiseta): 0% | inhibition of growth at 125 g/ha (Sida spinosa): 0% | inhibition of growth at 125 g/ha (Xanthium strumarium): 0%

CSc1cc(SC)nc(NC(=O)NS(=O)(=O)c2ncccc2C(=O)N(C)C)n1
inhibition of growth at 125 g/ha (Zea mays): 0% | inhibition of growth at 125 g/ha (Persicaria longiseta): 0% | inhibition of growth at 125 g/ha (Echinochloa crus-galli): 0% | inhibition of growth at 125 g/ha (Amaranthus viridis): 0% | inhibition of growth at 125 g/ha (Sida spinosa): 0% | inhibition of growth at 125 g/ha (Xanthium strumarium): 0%

CNC(=O)c1cccnc1S(=O)(=O)NC(=O)Nc1nc(OC)cc(OC)n1
inhibition of growth at 125 g/ha (Zea mays): 0% | inhibition of growth at 125 g/ha (Persicaria longiseta): 100% | inhibition of growth at 125 g/ha (Echinochloa crus-galli): 100% | inhibition of growth at 125 g/ha (Amaranthus viridis): 100% | inhibition of growth at 125 g/ha (Xanthium strumarium): 100%

CCOc1cc(OC)nc(NC(=O)NS(=O)(=O)c2ncccc2C(=O)N(C)C)n1
inhibition of growth at 125 g/ha (Zea mays): 0% | inhibition of growth at 125 g/ha (Amaranthus viridis): 100%

COc1cc(OC)nc(NC(=O)NS(=O)(=O)c2ncccc2C(=O)NC2CC2)n1
inhibition of growth at 125 g/ha (Zea mays): 0% | inhibition of growth at 125 g/ha (Echinochloa crus-galli): 100%

CCNC(=O)c1cccnc1S(=O)(=O)NC(=O)Nc1nc(OC)cc(OC)n1
inhibition of growth at 125 g/ha (Zea mays): 0%

COc1cc(C)nc(NC(=O)NS(=O)(=O)c2ncccc2C(=O)N(C)C)n1
inhibition of growth at 125 g/ha (Zea mays): 0%

CCCCNC(=O)c1cccnc1S(=O)(=O)NC(=O)Nc1nc(OC)cc(OC)n1
inhibition of growth at 125 g/ha (Zea mays): 0%

COc1cc(OC)nc(NC(=O)NS(=O)(=O)c2ncccc2C(=O)N(C)c2ccc(Cl)cc2)n1
inhibition of growth at 125 g/ha (Zea mays): 0% | inhibition of growth at 125 g/ha (Xanthium strumarium): 100%

C=CCNC(=O)c1cccnc1S(=O)(=O)NC(=O)Nc1nc(OC)cc(OC)n1
inhibition of growth at 125 g/ha (Zea mays): 0%

COC(=O)CNC(=O)c1cccnc1S(=O)(=O)NC(=O)Nc1nc(OC)cc(OC)n1
inhibition of growth at 125 g/ha (Triticum aestivum): 0% | inhibition of growth at 125 g/ha (Zea mays): 0% | inhibition of growth at 125 g/ha (Echinochloa crus-galli): 0% | inhibition of growth at 125 g/ha (Amaranthus viridis): 0% | inhibition of growth at 125 g/ha (Sida spinosa): 0% | inhibition of growth at 125 g/ha (Ipomoea purpurea): 0%

COc1cc(OC)nc(NC(=O)NS(=O)(=O)c2ncccc2C(=O)N(C)CC(F)(F)F)n1
inhibition of growth at 125 g/ha (Zea mays): 0%

COc1cc(OC)nc(NC(=O)NS(=O)(=O)c2ncccc2C(=O)N(C)OC)n1
inhibition of growth at 125 g/ha (Triticum aestivum): 100% | inhibition of growth at 125 g/ha (Zea mays): 0% | inhibition of growth at 125 g/ha (Echinochloa crus-galli): 100% | inhibition of growth at 125 g/ha (Amaranthus viridis): 100%

C=C(C)NC(=O)c1cccnc1S(=O)(=O)NC(=O)Nc1nc(OC)cc(OC)n1
inhibition of growth at 125 g/ha (Zea mays): 0%

COc1nc(C)nc(NC(=O)NS(=O)(=O)c2ncccc2C(=O)N(C)C)n1
inhibition of growth at 125 g/ha (Triticum aestivum): 0% | inhibition of growth at 125 g/ha (Zea mays): 0% | inhibition of growth at 125 g/ha (Echinochloa crus-galli): 0% | inhibition of growth at 125 g/ha (Sida spinosa): 0% | inhibition of growth at 125 g/ha (Ipomoea purpurea): 0%

COc1cc(OC)nc(NC(=O)NS(=O)(=O)c2ncccc2C(=O)N(C)c2ccc(F)cc2F)n1
inhibition of growth at 125 g/ha (Triticum aestivum): 100% | inhibition of growth at 125 g/ha (Sida spinosa): 0%

COc1cc(OC)nc(NC(=O)NS(=O)(=O)c2ncccc2C(=O)N(C)c2ccccc2)n1
inhibition of growth at 125 g/ha (Zea mays): 0%

COc1cc(OC)nc(NC(=O)NS(=O)(=O)c2ncccc2C(=O)N2CCOCC2)n1
inhibition of growth at 125 g/ha (Triticum aestivum): 0% | inhibition of growth at 125 g/ha (Zea mays): 0%

COc1cc(OC)nc(NC(=O)NS(=O)(=O)c2ncccc2C(=O)NCC(F)(F)F)n1
inhibition of growth at 125 g/ha (Zea mays): 0%

COc1cc(OC(F)F)nc(NC(=O)NS(=O)(=O)c2ncccc2C(=O)N(C)C)n1
inhibition of growth at 125 g/ha (Zea mays): 0%

COC(=O)N(C)C(=O)c1cccnc1S(=O)(=O)NC(=O)Nc1nc(OC)cc(OC)n1
inhibition of growth at 125 g/ha (Zea mays): 0%

COc1cc(SC)nc(NC(=O)NS(=O)(=O)c2ncccc2C(=O)N(C)C)n1
inhibition of growth at 125 g/ha (Zea mays): 0% | inhibition of growth at 125 g/ha (Amaranthus viridis): 100%

CCN(C)C(=O)c1cccnc1S(=O)(=O)NC(=O)Nc1nc(OC)cc(OC)n1
inhibition of growth at 125 g/ha (Zea mays): 0% | inhibition of growth at 125 g/ha (Echinochloa crus-galli): 100% | inhibition of growth at 125 g/ha (Xanthium strumarium): 100%

Cc1cc(C)nc(NC(=O)NS(=O)(=O)c2ncccc2C(=O)N(C)C)n1
inhibition of growth at 125 g/ha (Triticum aestivum): 0% | inhibition of growth at 125 g/ha (Zea mays): 0% | inhibition of growth at 125 g/ha (Persicaria longiseta): 0% | inhibition of growth at 125 g/ha (Echinochloa crus-galli): 0% | inhibition of growth at 125 g/ha (Sida spinosa): 0% | inhibition of growth at 125 g/ha (Ipomoea purpurea): 0%

COc1cc(Cl)nc(NC(=O)NS(=O)(=O)c2ncccc2C(=O)N(C)C)n1
inhibition of growth at 125 g/ha (Zea mays): 0% | inhibition of growth at 125 g/ha (Sida spinosa): 0%

COc1cc(OC)nc(NC(=O)NS(=O)(=O)c2ncccc2C(=O)N2CCCCC2)n1
inhibition of growth at 125 g/ha (Zea mays): 0%
